Measurements: ChEMBL document CHEMBL3576796, “A Broad Anti-influenza Hybrid Small Molecule That Potently Disrupts the Interaction of Polymerase Acidic Protein-Basic Protein 1 (PA-PB1) Subunits” (J Med Chem, 2015)
Values after ≈ are worked out from the molar mass of the structure shown.

Experiments:
[1] = system: Liver microsome; experiment: Metabolic stability in human liver microsomes assessed as cytochrome-mediated metabolism after 30 mins by HPLC-MS/MS analysis; type: ADME; conditions: 0.5 h
[2] = system: Influenza A virus; type: functional, organism-based; conditions: A/Puerto Rico/8/1934(H1N1), MDCK, 48 h
[3] = Cytotoxicity against human HEK293T cells assessed as decrease in cell viability by MTT assay; type: cell-based, HEK-293T
[4] = Cytotoxicity against MDCK cells assessed as decrease in cell viability by MTT assay; type: cell-based, Canis lupus familiaris; conditions: dog
[5] = biological target: PA/PB1 (Influenza A virus (A/Puerto Rico/8/1934(H1N1)), UniProt P03431+P03433)
[6] = Equilibrium solubility of the compound in phosphate buffer at pH 7.4 after 1 hr; type: physicochemical
[7] = Permeability of the compound assessed as passive diffusion from donor compartment to acceptor compartment after 18 hrs by PAMPA assay; type: physicochemical; conditions: read-out: Peff
[8] = Permeability of the compound assessed as membrane drug retention after 18 hrs by PAMPA assay; type: physicochemical; set-up: concentration or dose not given beside the values
[9] = system: Influenza A virus; type: functional, organism-based; conditions: A/Puerto Rico/8/1934(H1N1), MDCK, 48 h; remark: listed apart in the source
[10] = Antiviral activity against Influenza A virus A/Solomon Island/3/06 (H1N1) assessed as reduction in plaque formation after 48 hrs by plaque reduction assay; type: functional, Influenza A virus (A/Solomon Islands/3/2006(H1N1))
[11] = Antiviral activity against Influenza A virus A/Wisconsin/67/05 (H3N2) assessed as reduction in plaque formation after 48 hrs by plaque reduction assay; type: functional, Influenza A virus (A/Wisconsin/67/2005(H3N2))
[12] = system: Influenza B virus; experiment: Antiviral activity against Influenza B virus B/Lee/40 assessed as reduction in plaque formation after 48 hrs by plaque reduction assay; type: functional, organism-based; conditions: B/Lee/1940, 48 h
[13] = system: Influenza B virus; experiment: Antiviral activity against Influenza B virus B/Malaysia/2506/04 assessed as reduction in plaque formation after 48 hrs by plaque reduction assay; type: functional; conditions: B/Malaysia/2506/2004, 48 h
[14] = system: Influenza B virus; experiment: Antiviral activity against Influenza B virus B/Bangladesh/333/07 assessed as reduction in plaque formation after 48 hrs by plaque reduction assay; type: functional, organism-based; conditions: B/Bangladesh/333/07, 48 h

Compound	Drug metabolism [1]	EC50 [2]	CC50 [3]	CC50 [4]	IC50 [5]	other results
CC1=CC(c2ccccc2)n2nc(NC(=O)c3ccc(Oc4ccccc4)cc3)nc2N1 (stereo not drawn)	metabolite_notdetected	59 µM	73 µM	> 180 µM	156 µM	–
O=[N+]([O-])c1ccc(Oc2ccc(-n3cc(CO)nn3)cc2)c2nonc12	–	1 µM	40 µM	–	35 µM	–
CC1=CC(c2ccccc2)n2nc(NC(=O)c3cccc(F)c3)nc2N1 (stereo not drawn)	metabolite_notdetected	> 100 µM	220 µM	> 250 µM	156 µM	–
COc1ccc(C(=O)Nc2nc3nc(C)cc(-c4ccccc4)n3n2)cc1	metabolite_notdetected	86 µM	187 µM	> 250 µM	> 200 µM	–
CCCOc1ccc(C(=O)Nc2nc3nc(-c4ccccc4)cc(C)n3n2)cc1	metabolite_notdetected	> 100 µM	52 µM	> 247 µM	158 µM	–
CCOc1ccc(C(=O)Nc2nc3n(n2)C(c2ccccc2)C=C(C)N3)cc1 (stereo not drawn)	metabolite_notdetected	100 µM	237 µM	> 250 µM	139 µM	–
CC1=CC(c2ccccc2)n2nc(NC(=O)c3ccc(-c4ccccc4)cc3)nc2N1 (stereo not drawn)	metabolite_notdetected	28 µM	155 µM	> 193 µM	> 200 µM	–
Cc1cc(-c2ccccc2)n2nc(NC(=O)c3ccccc3)nc2n1	metabolite_notdetected	> 100 µM	> 250 µM	> 250 µM	> 200 µM	–
NC(=O)c1c(NC(=O)c2cnn3c(C(F)F)cc(-c4ccccc4)nc23)sc2c1CCC2	–	–	> 1000 µM	–	25.4 µM	–
CCCCOc1ccc(C(=O)Nc2nc3n(n2)C(c2ccccc2)C=C(C)N3)cc1 (stereo not drawn)	metabolite_notdetected	100 µM	> 250 µM	> 196 µM	37 µM	–
CCc1oc2ccccc2c1C(=O)c1cc(Br)c(O)c(Br)c1 [BENZBROMARONE]	–	39 µM	–	–	–	–
NC(=O)c1ncn([C@@H]2O[C@H](CO)[C@@H](O)[C@H]2O)n1 [RIBAVIRIN]	–	–	> 250 µM	> 250 µM	–	–
CCCOc1ccc(C(=O)Nc2nc3nc(C)cc(-c4ccccc4)n3n2)cc1	metabolite_notdetected	> 100 µM	95 µM	> 72 µM	> 200 µM	–
COc1ccc(C(=O)Nc2nc3n(n2)C(c2ccccc2)C=C(C)N3)cc1 (stereo not drawn)	metabolite_notdetected	> 100 µM	> 250 µM	> 240 µM	153 µM	solubility thermodynamic at 1 h [6]: 13 µg/mL (≈ 36 µM); Papp at 18 h [7]: 3.52 ×10⁻⁶ cm/s; Activity [8]: 57%
CCCCc1ccc(C(=O)Nc2nc3n(n2)C(c2ccccc2)C=C(C)N3)cc1 (stereo not drawn)	metabolite_notdetected	100 µM	> 250 µM	> 250 µM	48 µM	–
CC1=CC(c2ccccc2)n2nc(NC(=O)c3ccccc3F)nc2N1 (stereo not drawn)	metabolite_notdetected	> 100 µM	> 250 µM	> 250 µM	185 µM	–
COc1cccc(C(=O)Nc2nc3n(n2)C(c2ccccc2)C=C(C)N3)c1 (stereo not drawn)	metabolite_notdetected	> 100 µM	230 µM	> 250 µM	175 µM	–

Compound	Drug metabolism [1]	EC50 [2]	CC50 [3]	CC50 [4]	IC50 [5]	other results
Cc1cc(-c2ccccc2)nc2nc(C(=O)Nc3sc4c(c3C(N)=O)CCCCC4)nn12	metabolite_notdetected	49 µM	> 250 µM	> 250 µM	28 µM	Activity [8]: 99%; EC50 [9]: 8 µM; EC50 [10]: 16 µM; EC50 [11]: 14 µM; EC50 [12]: 5 µM; EC50 [13]: 11 µM; EC50 [14]: 12 µM
CC1=CC(c2ccccc2)n2nc(NC(=O)c3ccc(OC(C)C)cc3)nc2N1 (stereo not drawn)	metabolite_notdetected	> 100 µM	> 250 µM	> 250 µM	75 µM	–
CC1=CC(c2ccccc2)n2nc(NC(=O)CCc3ccccc3)nc2N1 (stereo not drawn)	metabolite_notdetected	> 100 µM	223 µM	> 250 µM	100 µM	–
COC(=O)C1=C(N)N(c2cccc(Cl)c2C)C2=C(C(=O)CCC2)C1c1ccc2c(c1)OCO2 (stereo not drawn)	–	12.2 µM	> 1000 µM	–	30.4 µM	–
CSCC[C@H](N)C(=O)N[C@@H](CC(=O)O)C(=O)N[C@H](C(=O)N[C@@H](CC(N)=O)C(=O)N1CCC[C@H]1C(=O)N[C@H](C(=O)N[C@@H](CC(C)C)C(=O)N[C@@H](CC(C)C)C(=O)N[C@@H](Cc1ccccc1)C(=O)N[C@@H](CC(C)C)C(=O)N[C@@H](CCCCN)C(=O)N[C@H](C(=O)N1CCC[C@H]1C(=O)N[C@@H](C)C(=O)N[C@@H](CCC(N)=O)C(=O)O)C(C)C)[C@@H](C)O)C(C)C	–	–	> 100 µM	–	–	–
Cc1cc(-c2ccccc2)n2nc(C(=O)Nc3ccccc3)nc2n1	metabolite_notdetected	42 µM	110 µM	> 250 µM	160 µM	–
Cc1cc(-c2ccccc2)nc2nc(C(=O)Nc3ccccc3)nn12	metabolite_notdetected	40 µM	> 250 µM	> 250 µM	128 µM	–
CC1=CC(c2ccccc2)n2nc(NC(=O)c3ccccc3)nc2N1 (stereo not drawn)	metabolite_notdetected	100 µM	> 250 µM	> 250 µM	100 µM	–
N#CC(c1ccc(Cl)cc1)c1c(Cl)cc(-n2ncc(=O)[nH]c2=O)cc1Cl (stereo not drawn) [DICLAZURIL]	–	31 µM	–	–	–	–
CC1=CC(c2ccccc2)n2nc(NC(=O)c3ccc(F)cc3)nc2N1 (stereo not drawn)	metabolite_notdetected	> 100 µM	190 µM	> 250 µM	138 µM	–
COc1ccccc1C(=O)Nc1nc2n(n1)C(c1ccccc1)C=C(C)N2 (stereo not drawn)	metabolite_notdetected	> 100 µM	240 µM	> 250 µM	> 200 µM	–
CC1=CC(c2ccccc2)n2nc(NC(=O)c3ccc([N+](=O)[O-])cc3)nc2N1 (stereo not drawn)	metabolite_notdetected	> 100 µM	> 250 µM	> 250 µM	75 µM	–
NC(=O)c1c(NC(=O)c2nc3nc(-c4ccccc4)cc(C(F)(F)F)n3n2)sc2c1CCCC2	–	–	> 250 µM	–	7.5 µM	–
CC1=CC(c2ccccc2)n2nc(NC(=O)c3ccc(Cl)cc3)nc2N1 (stereo not drawn)	metabolite_notdetected	> 100 µM	> 250 µM	> 250 µM	95 µM	–
CC1=CC(c2ccccc2)n2nc(NC(=O)c3ccc4ccccc4c3)nc2N1 (stereo not drawn)	metabolite_notdetected	41 µM	154 µM	> 115 µM	> 200 µM	–
COc1ccc(C(=O)Nc2nc3nc(-c4ccccc4)cc(C)n3n2)cc1	metabolite_notdetected	> 100 µM	109 µM	> 250 µM	150 µM	–
Nc1ccc(O)c2c1C(=O)c1c(N)ccc(O)c1C2=O	–	14.5 µM	> 250 µM	–	20.3 µM	–
